Laboratory results: ChEMBL document CHEMBL1201862, “PubChem BioAssay data set” (2004)
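All cell lines were grown in 96-well plates and treated with compound for 48 hours. At the GI50, growth is halved.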 The source made the active and inactive calls. Rule as the data show it: active = GI50 up to about 1.1 µM and inactive = higher.

Assays:
Test in all cases: NCI anticancer screen, dose series, 48 h
[1] = test system: NCI-H460
[2] = test system: OVCAR-5
[3] = test system: IGROV-1
[4] = test system: OVCAR-4
[5] = test system: HL-60
[6] = test system: HCC 2998
[7] = test system: LOX IMVI
[8] = test system: CCRF-CEM
[9] = test system: MDA-MB-231
[10] = test system: SK-MEL-2
[11] = test system: SR
[12] = test system: CAKI-1
[13] = test system: A549
[14] = test system: 786-0
[15] = test system: SW-620
[16] = test system: SF-539
[17] = test system: NCI-H23
[18] = test system: SK-MEL-28
[19] = test system: SNB-75
[20] = test system: SF-268

Row | SMILES | GI50 [1] | GI50 [2] | GI50 [3] | GI50 [4] | GI50 [5] | GI50 [6] | GI50 [7] | GI50 [8] | GI50 [9] | GI50 [10] | GI50 [11] | GI50 [12] | GI50 [13] | GI50 [14] | GI50 [15] | GI50 [16] | GI50 [17] | GI50 [18] | GI50 [19] | GI50 [20]
1 | O=C(O)c1c(CC(Cc2ccc3c(c2)CCC3)C(=O)O)ccc2c1CCC2 (centres undefined) | > 100 µM (inactive) | > 100 µM (inactive) | > 100 µM (inactive) | > 100 µM (inactive) | > 100 µM (inactive) | > 100 µM (inactive) | > 100 µM (inactive) | > 100 µM (inactive) | > 100 µM (inactive) | > 100 µM (inactive) | > 100 µM (inactive) | > 100 µM (inactive) | > 100 µM (inactive) | > 100 µM (inactive) | > 100 µM (inactive) | > 100 µM (inactive) | > 100 µM (inactive) | > 100 µM (inactive) |  | 
2 | COC(=O)C1=C(C(=O)OC)SC2(S1)C(C(=O)OC)=C(C(=O)OC)Sc1c2ss/c1=N\c1ccc(Cl)cc1 | 0.333 µM (active) | 1.45 µM (inactive) | 1.14 µM (inactive) | 1.18 µM (inactive) | 1.11 µM (active) | 0.325 µM (active) | 0.339 µM (active) | 0.197 µM (active) | 0.948 µM (active) | 0.325 µM (active) | 0.277 µM (active) | 0.733 µM (active) | 1.56 µM (inactive) | 0.516 µM (active) | 0.425 µM (active) | 0.51 µM (active) | 1.83 µM (inactive) | 1.7 µM (inactive) | 1.07 µM (active) | 1.13 µM (inactive)
3 | COc1c2occc2c(N)c2ccc(=O)oc12 | > 100 µM (inactive) | > 100 µM (inactive) | > 100 µM (inactive) | > 100 µM (inactive) | 49.2 µM (inactive) | > 100 µM (inactive) | > 100 µM (inactive) | 93.5 µM (inactive) | > 100 µM (inactive) | > 100 µM (inactive) | > 100 µM (inactive) | > 100 µM (inactive) | > 100 µM (inactive) | > 100 µM (inactive) | > 100 µM (inactive) | 75.2 µM (inactive) | > 100 µM (inactive) | > 100 µM (inactive) | 17.2 µM (inactive) | > 100 µM (inactive)
4 | Cc1c(-c2ccc(-c3ccccc3F)cc2)nc2ccc(F)cc2c1C(=O)O [BREQUINAR SODIUM] | 0.128 µM (active) | 38.8 µM (inactive) | 0.303 µM (active) | 2.73 µM (inactive) | 0.479 µM (active) | 9.62 µM (inactive) | 0.0931 µM (active) | 0.284 µM (active) | 9.93 µM (inactive) | 61.8 µM (inactive) | 0.427 µM (active) | 0.904 µM (active) | 0.234 µM (active) | 0.195 µM (active) | 0.384 µM (active) | 0.346 µM (active) | 21.5 µM (inactive) | 9.93 µM (inactive) | 30.3 µM (inactive) | 0.372 µM (active)
5 | COc1ccc(N[S+]([O-])C2CCCCC2)cc1 (centres undefined) | > 100 µM (inactive) | > 100 µM (inactive) | > 100 µM (inactive) |  | > 100 µM (inactive) | 59.2 µM (inactive) | > 100 µM (inactive) | > 100 µM (inactive) | > 100 µM (inactive) |  | > 100 µM (inactive) | > 100 µM (inactive) | > 100 µM (inactive) | > 100 µM (inactive) | > 100 µM (inactive) | > 100 µM (inactive) | > 100 µM (inactive) | > 100 µM (inactive) | > 100 µM (inactive) | > 100 µM (inactive)
6 | Nc1nc(=O)c(/N=N/c2ccc([As](=O)(O)O)cc2)c(N)[nH]1 | > 100 µM (inactive) | > 100 µM (inactive) | > 100 µM (inactive) | > 100 µM (inactive) | > 100 µM (inactive) | > 100 µM (inactive) | > 100 µM (inactive) | > 100 µM (inactive) | > 100 µM (inactive) | > 100 µM (inactive) | > 100 µM (inactive) | > 100 µM (inactive) | > 100 µM (inactive) | > 100 µM (inactive) | > 100 µM (inactive) |  | > 100 µM (inactive) | > 100 µM (inactive) | > 100 µM (inactive) | > 100 µM (inactive)
7 | O=C(OC1C#CCSCC#C/C=C\1)c1ccc2c(c1)C(=O)c1ccccc1C2=O (centres undefined) | > 100 µM (inactive) | > 100 µM (inactive) | 34.8 µM (inactive) | > 100 µM (inactive) | > 100 µM (inactive) | > 100 µM (inactive) | > 100 µM (inactive) | > 100 µM (inactive) | 26.2 µM (inactive) | 35.8 µM (inactive) | 25.5 µM (inactive) | 37.5 µM (inactive) | > 100 µM (inactive) |  | > 100 µM (inactive) | 15.5 µM (inactive) | 40.7 µM (inactive) | > 100 µM (inactive) | 26.4 µM (inactive) | 21.6 µM (inactive)
8 | COc1ccc(C(SCCO)(c2ccc(OC)cc2)c2ccc(OC)cc2)cc1 | 15 µM (inactive) | 22.5 µM (inactive) |  | 21.6 µM (inactive) | 21 µM (inactive) | 14.4 µM (inactive) | 14 µM (inactive) | 7.23 µM (inactive) | 19.8 µM (inactive) | 14.1 µM (inactive) | 3.4 µM (inactive) | 20.6 µM (inactive) | 17.7 µM (inactive) | 14.2 µM (inactive) | 15 µM (inactive) | 14.4 µM (inactive) | 17.7 µM (inactive) | 17.9 µM (inactive) | 22 µM (inactive) | 17.3 µM (inactive)
9 | Cn1c(=O)n2c(-c3ccccc3)c(-c3ccccc3)n2c1=O | > 100 µM (inactive) | > 100 µM (inactive) | > 100 µM (inactive) | > 100 µM (inactive) | 46.9 µM (inactive) | > 100 µM (inactive) | > 100 µM (inactive) | > 100 µM (inactive) | > 100 µM (inactive) | > 100 µM (inactive) | > 100 µM (inactive) | > 100 µM (inactive) | > 100 µM (inactive) | > 100 µM (inactive) | > 100 µM (inactive) | > 100 µM (inactive) | > 100 µM (inactive) | > 100 µM (inactive) | 99.1 µM (inactive) | 
10 | COc1cc(CC(C)NC(C)=O)cc(OC)c1 (centres undefined) | > 100 µM (inactive) | > 100 µM (inactive) | > 100 µM (inactive) |  | > 100 µM (inactive) | > 100 µM (inactive) | > 100 µM (inactive) | > 100 µM (inactive) | > 100 µM (inactive) | > 100 µM (inactive) | 3.04 µM (inactive) | > 100 µM (inactive) | > 100 µM (inactive) | > 100 µM (inactive) | > 100 µM (inactive) | > 100 µM (inactive) | > 100 µM (inactive) | > 100 µM (inactive) | 34.4 µM (inactive) | > 100 µM (inactive)
11 | COC(=O)[C@H]1C=NN[C@@H]1C(=O)N1[C@H]2CC3CC[C@@]2(CS1(=O)=O)C3(C)C | > 100 µM (inactive) | > 100 µM (inactive) | > 100 µM (inactive) | > 100 µM (inactive) | > 100 µM (inactive) | > 100 µM (inactive) | > 100 µM (inactive) | > 100 µM (inactive) | > 100 µM (inactive) | > 100 µM (inactive) | > 100 µM (inactive) | > 100 µM (inactive) | > 100 µM (inactive) |  | > 100 µM (inactive) | > 100 µM (inactive) | > 100 µM (inactive) | > 100 µM (inactive) |  | > 100 µM (inactive)
12 | Cc1ccc(Nc2nc(NNC(=O)Cc3ccccc3)nc(NNC(=O)c3ccncc3)n2)cc1 | > 10 µM (inactive) |  | > 10 µM (inactive) | > 10 µM (inactive) | > 10 µM (inactive) | > 10 µM (inactive) | > 10 µM (inactive) | > 10 µM (inactive) | > 10 µM (inactive) |  | > 10 µM (inactive) | > 10 µM (inactive) | > 10 µM (inactive) | > 10 µM (inactive) | > 10 µM (inactive) | > 10 µM (inactive) | > 10 µM (inactive) | > 10 µM (inactive) | > 10 µM (inactive) | > 10 µM (inactive)
13 | O=C1CCCCc2cccc(O)c21 | > 100 µM (inactive) | > 100 µM (inactive) | > 100 µM (inactive) | > 100 µM (inactive) | > 100 µM (inactive) | > 100 µM (inactive) | > 100 µM (inactive) | > 100 µM (inactive) | > 100 µM (inactive) | > 100 µM (inactive) | > 100 µM (inactive) | > 100 µM (inactive) |  | > 100 µM (inactive) | > 100 µM (inactive) | > 100 µM (inactive) | > 100 µM (inactive) | > 100 µM (inactive) | > 100 µM (inactive) | > 100 µM (inactive)
14 | CC(C)(C)OC(=O)NC(Cc1ccc([N+](=O)[O-])cc1)C(=O)NC(CCCCNC(=O)OCc1ccccc1)C(=O)ON1C(=O)CCC1=O (centres undefined) | > 100 µM (inactive) | > 100 µM (inactive) | > 100 µM (inactive) | > 100 µM (inactive) | 78.3 µM (inactive) | 24.4 µM (inactive) | 28.8 µM (inactive) |  | 43.8 µM (inactive) |  | 49.4 µM (inactive) | > 100 µM (inactive) | > 100 µM (inactive) | > 100 µM (inactive) | 26.7 µM (inactive) | > 100 µM (inactive) | > 100 µM (inactive) | > 100 µM (inactive) | > 100 µM (inactive) | 44.2 µM (inactive)
